Experimental data from patent US20240150377A1, “MODULATORS OF CYSTIC FIBROSIS TRANSMEMBRANE CONDUCTANCE REGULATOR” (VERTEX PHARMACEUTICALS INCORPORATED, priority 2020, published 2024).
pEC50: −log10 of the molar value.

Tests used:
[1] = target: T1, CFTR (Homo sapiens, UniProt P13569); assay: Membrane potential dye, Enteroid Assay B; type: cell-based; settings: for Ent. B Max Activity: chloride transport as % of triple combination control (Enteroid Assay B); for pEC50: read-out: Ent. B EC50
Protocol: Base medium (ADF+++) consisted of Advanced DMEM/Ham's F12, 2 mM Glutamax, 10 mM HEPES, […] penicillin/streptomycin.
Intestinal enteroid maintenance medium (IEMM) consisted of ADF+++, 1× B27 supplement, 1× N2 supplement, 1.25 mM N-acetyl cysteine, 10 mM Nicotinamide, 50 ng/mL hEGF, 10 nM Gastrin, 1 μg/mL hR-spondin-1, 100 ng/mL hNoggin, TGF-b type 1 inhibitor A-83-01, 100 μg/mL Primocin, 10 μM P38 MAPK inhibitor SB202190.
Bath 1 Buffer consisted of 1 mM MgCl2, 160 mM NaCl, 4.5 mM KCl, 10 mM HEPES, 10 mM Glucose, 2 mM CaCl2).
Chloride Free Buffer consisted of 1 mM Magnesium Gluconate, 2 mM Calcium Gluconate, 4.5 mM Potassium Gluconate, 160 mM Sodium Gluconate, 10 mM HEPES, 10 mM Glucose.
BathI Dye Solution consisted of Bath 1 Buffer, 0.04% Pluronic F127, 20 μM Methyl Oxonol, 30 μM CaCCinh-A01, 30 μM Chicago Sky Blue.
Chloride Free Dye Solution consisted of Chloride Free Buffer, 0.04% Pluronic F127, 20 μM Methyl Oxonol, 30 μM CaCCinh-A01, 30 μM Chicago Sky Blue.
Chloride Free Dye Stimulation Solution consisted of Chloride Free Dye Solution, 10 μM forskolin, 100 μM IBMX, and 300 nM Compound III.
Human intestinal epithelial enteroid cells were obtained from the Hubrecht Institute for Developmental Biology and Stem Cell Research, Utrecht, The Netherlands and expanded in T-Flasks as previously described (Dekkers J F, Wiegerinck C L, de Jonge H R, Bronsveld I, Janssens H M, de Winter-de Groot K M, Brandsma A M, de Jong N W M, Bijvelds M J C, Scholte B J, Nieuwenhuis E E S, van den Brink S, Clevers H, van der Ent C K, Middendorp S and M Beekman J M. A functional CFTR assay using primary cystic fibrosis intestinal organoids. Nat Med. 2013 July;19(7):939-45.).
3. Enteroid Cell Harvesting and Seeding
Cells were recovered in cell recovery solution, collected by centrifugation at 650 rpm for 5 min at 4° C., resuspended in TrypLE and incubated for 5 min at 37° C. Cells were then collected by centrifugation at 650 rpm for 5 min at 4° C. and resuspended in IEMM containing 10 μM ROCK inhibitor (RI). The cell suspension was passed through a 40 μm cell strainer and resuspended at 1×10^6 cells/mL in IEMM containing 10 μM RI. Cells were seeded at 5000 cells/well into multi-well plates and incubated for overnight at 37° C., 95% humidity and 5% CO2 prior to assay.
5. Membrane Potential Dye, Enteroid Assay B
Enteroid cells were incubated with test compound in IEMM for 18-24 hours at 37° C., 95% humidity and 5% CO2. […] Briefly, cells were washed 5 times in Bath 1 Buffer. Bath 1 Dye Solution was added and the cells were incubated for 25 min at room temperature. Following dye incubation, cells were washed 3 times in Chloride Free Dye Solution. Chloride transport was initiated by addition of Chloride Free Dye Stimulation Solution and the fluorescence signal was read for 15 min. […] Chloride transport was then expressed as a percentage of the chloride transport following treatment with 1 μM (14S)-8-[3-(2-{Dispiro[2.0.2.1]heptan-7-yl}ethoxy)-1H-pyrazol-1-yl]-12,12-dimethyl-2λ^6-thia-3,9,11,18,23-pentaazatetracyclo[17.3.1.111,14.05,10]tetracosa-1(22),5,7,9,19(23),20-hexaene-2,2,4-trione, 3 μM (R)-1-(2,2-difluorobenzo[d][1,3]dioxol-5-yl)-N-(1-(2,3-dihydroxypropyl)-6-fluoro-2-(1-hydroxy-2-methylpropan-2-yl)-1H-indol-5-yl)cyclopropanecarboxamide and 300 nM acute N-[2,4-bis(1,1-dimethylethyl)-5-hydroxyphenyl]-1,4-dihydro-4-oxoquinoline-3-carboxamide triple combination control (% Activity).

[2] = target: T1, CFTR; assay: Membrane potential dye, Enteroid Assay A; type: cell-based; settings: for Ent. A Max Activity: chloride transport as % of triple combination control (Enteroid Assay A); for pEC50: human enteroid cells, 18-24 hours, acute 10 μM forskolin and 300 nM ivacaftor, read-out: Ent. A EC50
Summary of the method: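 % Activity: chloride transport relative to a 3 μM/3 μM corrector pair plus 300 nM acute potentiator control. Primary human enteroid cells, 18-24 h compound exposure at 37 °C; membrane potential dye (methyl oxonol) fluorescence over 15 min after forskolin (10 μM)/IBMX (100 μM)/Compound III (300 nM) stimulation in chloride-free buffer.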

[3] = Table 8, human enteroid cells, 18-24 hours, acute 10 μM forskolin and 300 nM ivacaftor

T1 sequence (P13569 with tags, fused parts or gaps DEL508-508): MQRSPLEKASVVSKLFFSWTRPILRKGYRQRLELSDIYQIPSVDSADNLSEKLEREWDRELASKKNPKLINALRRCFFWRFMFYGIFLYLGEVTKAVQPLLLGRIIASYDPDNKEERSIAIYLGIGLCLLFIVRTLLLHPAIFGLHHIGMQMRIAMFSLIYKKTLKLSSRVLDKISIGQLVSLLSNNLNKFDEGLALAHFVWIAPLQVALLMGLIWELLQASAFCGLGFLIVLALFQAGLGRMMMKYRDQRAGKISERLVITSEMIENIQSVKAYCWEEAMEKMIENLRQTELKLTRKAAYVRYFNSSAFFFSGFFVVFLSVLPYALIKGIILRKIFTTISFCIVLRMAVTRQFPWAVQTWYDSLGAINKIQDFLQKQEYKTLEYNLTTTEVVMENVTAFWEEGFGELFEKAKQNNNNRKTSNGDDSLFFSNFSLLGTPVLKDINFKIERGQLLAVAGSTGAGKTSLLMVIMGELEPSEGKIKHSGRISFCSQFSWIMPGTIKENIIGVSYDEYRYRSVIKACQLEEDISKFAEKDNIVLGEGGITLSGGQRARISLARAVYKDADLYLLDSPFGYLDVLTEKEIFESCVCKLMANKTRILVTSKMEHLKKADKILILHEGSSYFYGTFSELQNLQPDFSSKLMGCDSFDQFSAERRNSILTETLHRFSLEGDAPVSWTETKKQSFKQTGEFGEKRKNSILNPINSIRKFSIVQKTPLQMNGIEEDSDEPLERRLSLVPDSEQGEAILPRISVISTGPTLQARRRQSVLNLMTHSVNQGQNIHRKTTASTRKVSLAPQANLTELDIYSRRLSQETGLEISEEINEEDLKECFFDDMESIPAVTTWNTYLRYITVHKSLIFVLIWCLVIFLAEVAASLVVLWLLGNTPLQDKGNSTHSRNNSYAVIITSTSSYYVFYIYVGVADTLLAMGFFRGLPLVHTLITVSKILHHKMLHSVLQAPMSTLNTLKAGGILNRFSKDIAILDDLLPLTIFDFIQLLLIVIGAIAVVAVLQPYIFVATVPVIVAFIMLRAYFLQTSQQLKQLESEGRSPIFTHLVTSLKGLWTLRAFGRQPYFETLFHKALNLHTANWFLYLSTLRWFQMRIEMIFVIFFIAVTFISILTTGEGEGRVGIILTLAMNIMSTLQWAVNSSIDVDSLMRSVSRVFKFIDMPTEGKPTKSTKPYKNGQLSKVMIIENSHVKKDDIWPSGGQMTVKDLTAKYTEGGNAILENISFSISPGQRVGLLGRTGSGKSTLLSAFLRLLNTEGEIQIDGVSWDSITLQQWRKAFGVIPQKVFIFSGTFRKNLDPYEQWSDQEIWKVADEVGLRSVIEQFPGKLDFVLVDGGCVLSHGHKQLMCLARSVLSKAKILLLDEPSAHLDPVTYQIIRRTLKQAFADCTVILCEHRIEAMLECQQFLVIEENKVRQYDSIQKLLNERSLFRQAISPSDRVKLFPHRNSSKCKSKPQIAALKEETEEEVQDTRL

Ent. B Max Activity ([1]; Table 8)	pEC50 [1, 3]	Structure (SMILES)	other results
+++ (+++ is >60%)	> 6.00	Cc1cccc(C)c1-c1cc2nc(n1)NS(=O)(=O)c1cccc(c1)C(=O)N(C)CC(c1ccc(CC3(C(F)(F)F)CC3)cn1)O2 (centres unmarked) [Compound 336]	–
+++ (+++ is >60%)	> 6.00	Cc1cccc(C)c1-c1cc2nc(n1)NS(=O)(=O)c1cccc(c1)C(=O)N(C)CC(c1ccc(CC3(C(F)(F)F)CC3)cn1)O2 (single isomer, unassigned) [Compound 104, 6-(2,6-dimethylphenyl)-12-methyl-10-(5-{[1-(trifluoromethyl)cyclopropyl]methyl}pyridin-2-yl)-9-oxa-2λ^6-thia-3,5,12,19-tetraazatricyclo[12.3.1.14,8]nonadeca-1(17),4(19),5,7,14(18),15-hexaene-2,2,13-trione]	–
+ (+ is <30%)	5.52 to 6.00	Cc1cccc(C)c1-c1cc2nc(n1)NS(=O)(=O)c1cccc(c1)C(=O)N(CCCC(C)(C)O)[C@H](CC(C)(C)O)CO2 [Compound 662]	–
+ (+ is <30%)	–	Cc1cccc(C)c1-c1cc2nc(n1)NS(=O)(=O)c1cc(nn1C)C(=O)N(Cc1cccnc1)[C@H](CC(C)(C)C)CO2 [Compound 933]	–
++ (++ is 30-60%)	> 6.00	CNC(=O)c1ccc(CCN2C(=O)c3cccc(c3)S(=O)(=O)Nc3nc(cc(-c4c(C)cccc4C)n3)OC[C@H]2CC(C)(C)C)cc1 [Compound 395]	–
++ (++ is 30-60%)	> 6.00	Cc1cccc(C)c1-c1cc2nc(n1)NS(=O)(=O)c1cc(nn1C)C(=O)N(Cc1ccccc1)[C@H](CC(C)(C)C)CO2 [Compound 928]	–
+++ (+++ is >60%)	> 6.00	Cc1cccc(C)c1-c1cc2nc(n1)NS(=O)(=O)c1cccc(c1)C(=O)N(Cc1ccccc1)[C@H](CC(C)(C)C)CO2 [Compound 1087]	–

The remaining lines, values behind:

Structure (SMILES)	Ent. B Max Activity ([1]; Table 8)	pEC50 [1, 3]	other results
Cc1cccc(C)c1-c1cc2nc(n1)NS(=O)(=O)c1cccc(c1)C(=O)N(Cc1ccc(NC(=O)OC(C)C)nc1)[C@H](CC(C)(C)C)CO2 [Compound 401]	+++ (+++ is >60%)	> 6.00	–
Cc1cccc(C)c1-c1cc2nc(n1)NS(=O)(=O)c1cccc(c1)C(=O)N(Cc1cnccn1)[C@H](CC(C)(C)C)CO2 [Compound 1100]	+++ (+++ is >60%)	> 6.00	–
Cc1cccc(C)c1-c1cc2nc(n1)NS(=O)(=O)c1cccc(c1)C(=O)N(CCCC(=O)N(C)C)[C@H](CC(C)C)CO2 [Compound 92, 4-[(11R)-6-(2,6-Dimethylphenyl)-11-isobutyl-2,2,13-trioxo-9-oxa-2λ^6-thia-3,5,12,19-tetrazatricyclo[12.3.1.14,8]nonadeca-1(18),4(19),5,7,14,16-hexaen-12-yl]-N,N-dimethyl-butanamide]	+++ (+++ is >60%)	> 6.00	–
Cc1cccc(C)c1-c1cc2nc(n1)NS(=O)(=O)c1cccc(c1)C(=O)N(Cc1ncc(C(C)C)cn1)[C@H](CC(C)(C)C)CO2 [Compound 1077]	–	–	Ent. B Max Activity (%) ([1]; Table 9): +++ (+++ is >600%); pEC50 ([1]; Table 9): > 6.00
Cc1cccc(C)c1-c1cc2nc(n1)NS(=O)(=O)c1cccc(c1)C(=O)N(Cc1ccc(Oc3ncccn3)cc1)[C@H](CC(C)(C)C)CO2 [Compound 789]	–	–	Ent. B Max Activity (%) ([1]; Table 9): +++ (+++ is >600%); pEC50 ([1]; Table 9): > 6.00
Cc1cccc(C)c1-c1cc2nc(n1)NS(=O)(=O)c1cccc(n1)C(=O)N(Cc1cccnn1)[C@H](CC(C)(C)C)CO2 [Compound 1090]	+++ (+++ is >60%)	> 6.00	–
Cc1cccc(C)c1-c1cc2nc(n1)NS(=O)(=O)c1cccc(c1)C(=O)N(Cc1cc(C(C)(C)O)n(C)n1)[C@H](CC(C)(C)C)CO2 [Compound 849]	+++ (+++ is >60%)	> 6.00	–
Cc1cccc(C)c1-c1cc2nc(n1)NS(=O)(=O)c1cccc(c1)C(=O)N(CCCN(C)C)[C@H](CC(C)C)CO2 [Compound 411]	–	–	Ent. B Max Activity ([1]; Table 7): +++ (+++ is >60%); pEC50 ([1]; Table 7, human enteroid cells, 18-24 hours, acute 10 μM forskolin and 300 nM ivacaftor): > 6.00
Cc1cccc(C)c1-c1cc2nc(n1)NS(=O)(=O)c1cccc(c1)C(=O)N(CC1Cc3ccccc3C1)[C@H](CC(C)(C)C)CO2 [Compound 808]	+++ (+++ is >60%)	> 6.00	–
Cc1cccc(C)c1-c1cc2nc(n1)NS(=O)(=O)c1cccc(c1)C(=O)N(Cc1ncccc1N1CCOCC1)[C@H](CC(C)(C)C)CO2 [Compound 386]	–	–	Ent. B Max Activity (%) ([1]; Table 9): +++ (+++ is >600%); pEC50 ([1]; Table 9): > 6.00
Cc1cccc(C)c1-c1cc2nc(n1)NS(=O)(=O)c1cccc(c1)C(=O)N(Cc1nc3ccccc3o1)[C@H](CC(C)(C)C)CO2 [Compound 803]	–	–	Ent. B Max Activity (%) ([1]; Table 9): +++ (+++ is >600%); pEC50 ([1]; Table 9): > 6.00
Cc1cccc(C)c1-c1cc2nc(n1)NS(=O)(=O)c1cccc(c1)C(=O)N(CC(C)(C)O)[C@H](CC(C)C)CO2 [Compound 43, (11R)-6-(2,6-Dimethylphenyl)-12-(2-hydroxy-2-methyl-propyl)-11-isobutyl-2,2-dioxo-9-oxa-2λ^6-thia-3,5,12,19-tetrazatricyclo[12.3.1.14,8]nonadeca 1(18),4(19),5,7,14,16-hexaen-13-one]	+++ (+++ is >60%)	> 6.00	–
Cc1cccc(C)c1-c1cc2nc(n1)NS(=O)(=O)c1cccc(c1)C(=O)N(Cc1cccc(NC(=O)OC(C)C)c1)[C@H](CC(C)(C)C)CO2 [Compound 507]	+++ (+++ is >60%)	> 6.00	–
Cc1cccc(C)c1-c1cc2nc(n1)NSc1cccc(c1)C(=O)N(Cc1ccc(C(C)(C)O)cc1)[C@H](CC(C)(C)C(F)(F)F)CO2 [Compound 321]	–	–	Ent. B Max Activity (%) ([1]; Table 9): +++ (+++ is >600%); pEC50 ([1]; Table 9): > 6.00
Cc1cccc(C)c1-c1cc2nc(n1)NS(=O)(=O)c1cccc(c1)CN(CCC(C)CC(C)(C)C)[C@H](CC(C)C)CO2 (some centres unmarked) [Compound 1022]	–	–	Ent. A Max Activity ([2]; Table 7): ++ (++ is 30-60%); pEC50 ([2]; Table 7): > 6.00
Cc1cccc(C)c1-c1cc2nc(n1)NS(=O)(=O)c1cccc(c1)C(=O)N(C)CC(c1ccc(-c3ccc(C(C)(C)C)cc3)cn1)O2 (centres unmarked) [Compound 511]	–	–	Ent. A Max Activity ([2]; Table 6): +++ (+++ is >60%); pEC50 ([2]; Table 6): > 6.00
Cc1cccc(C)c1-c1cc2nc(n1)NS(=O)(=O)c1cccc(c1)C(=O)N(CCC(C)C)[C@H](CC(C)C)CO2 [Compound 369]	–	–	Ent. A Max Activity ([2]; Table 6): +++ (+++ is >60%); pEC50 ([2]; Table 6): > 6.00
CNCCNCC1CN(C)C(=O)c2cccc(c2)S(=O)(=O)Nc2nc(cc(-c3c(C)cccc3C)n2)O1 (centres unmarked) [Compound 1016]	–	–	Ent. A Max Activity ([2]; Table 6): + (+ is <30%)
Cc1cccc(C)c1-c1cc2nc(n1)NS(=O)(=O)c1cccc(c1)C(=O)N(Cc1ccc(N3CCN(C)CC3)nc1)[C@H](CC(C)C)CO2 [Compound 854]	–	–	Ent. A Max Activity ([2]; Table 6): +++ (+++ is >60%); pEC50 ([2]; Table 6): > 6.00
